Key:
Test in all cases: Finger 2 variant affinity (Table 5)
Assay type in all cases: binding
Finger-2 Subsite GTG = molecular target: Finger-2 Subsite GTG
Text: (§1) Finger 2 variants recognizing each of the 16 triplets of the GXX set (Segal et al. (1999) Proc. Natl. Acad. Sci. U.S.A. 96:2758-2763; and Table 1), as well as one variant recognizing TGA, have been successfully selected. […] Thus, a 5′- and 3′-G selected an arginine at helix positions 6 and −1, respectively, while a central G selected an a histidine or lysine at position 3 of the recognition helix. In contrast, a central A selected an asparagine, a 3′-A a glutamine, a central T a serine or alanine, a 3′-T a threonine or serine, a central C an aspartate or threonine, and a 3′-C an aspartate or glutamate at the corresponding helix positions.
(§2) In Table 5, below, the finger 2 variants generated by phage display selection and refined by site-directed mutagenesis are summarized. Protein designations are in the form pXXX, for clones derived from panning; pmXXX refers to clones refined by mutagenesis. Helix positions −1, 3, and 6 are shown in bold, altered nucleotides are underlined. The values represent the results of at least two independent experiments. The standard error was ±50% or less.

Finger-2 Subsite GAG = molecular target: Finger-2 Subsite GAG
Text: as §1, §2

Finger-2 Subsite GTT = molecular target: Finger-2 Subsite GTT
Text: as §1, §2

Substance	KD,Prot/KD,Zif268 (Finger-2 Subsite GTG)	Kd (Finger-2 Subsite GTG) [nM]	KD,Prot/KD,Zif268 (Finger-2 Subsite GAG)	Kd (Finger-2 Subsite GAG) [nM]	KD,Prot/KD,Zif268 (Finger-2 Subsite GTT)	Kd (Finger-2 Subsite GTT) [nM]
pmGTG: finger 2 variant refined by mutagenesis, helix SRSDELVR	1.5	15	3.0	30	–	–
pmGTT: finger 2 variant refined by mutagenesis, helix STSGSLVR	–	–	–	–	0.5	5

— patent US7442784B2, “Ligand activated transcriptional regulator proteins” (The Scripps Research Institute, priority 1999, dated 2008)
